Measurements reported in the supplement of paper PMC10307832.

Assays:
Assay in all cases: relative viability (nuclei count vs DMSO), 5 days (fraction); higher = more cells survive
Omipalisib + Trametinib = compound: COc1ncc(-c2ccc3nccc(-c4ccnnc4)c3c2)cc1NS(=O)(=O)c1ccc(F)cc1F [Omipalisib] + CC(=O)Nc1cccc(-n2c(=O)n(C3CC3)c(=O)c3c(Nc4ccc(I)cc4F)n(C)c(=O)c(C)c32)c1 [Trametinib] (partner 0.02 µM)
How it was run: (§1)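 Lung cancer cell lines were pin-tool dosed in 1536-well plates on the day after seeding, with either a lone drug or a fixed anchor-drug dose plus five library-drug doses (not always all listed) in √10 steps. Nuclei were counted on 4× images after 5 days. Relative viability is the ratio of treated-well to vehicle-well nuclei counts, with each value a median of duplicate plates.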

Omipalisib + OSI-027 = compound: COc1ncc(-c2ccc3nccc(-c4ccnnc4)c3c2)cc1NS(=O)(=O)c1ccc(F)cc1F [Omipalisib] + COc1cccc2cc(-c3nc([C@H]4CC[C@H](C(=O)O)CC4)n4ncnc(N)c34)[nH]c12 [OSI-027] (partner 0.5 µM)
How it was run: as §1

Omipalisib + Lapatinib = compound: COc1ncc(-c2ccc3nccc(-c4ccnnc4)c3c2)cc1NS(=O)(=O)c1ccc(F)cc1F [Omipalisib] + CS(=O)(=O)CCNCc1ccc(-c2ccc3ncnc(Nc4ccc(OCc5cccc(F)c5)c(Cl)c4)c3c2)o1 [Lapatinib] (partner 2 µM)
How it was run: as §1

Omipalisib + Dasatinib = compound: COc1ncc(-c2ccc3nccc(-c4ccnnc4)c3c2)cc1NS(=O)(=O)c1ccc(F)cc1F [Omipalisib] + Cc1nc(Nc2ncc(C(=O)Nc3c(C)cccc3Cl)s2)cc(N2CCN(CCO)CC2)n1 [Dasatinib] (partner 0.075 µM)
How it was run: as §1

Omipalisib + Decitabine = compound: COc1ncc(-c2ccc3nccc(-c4ccnnc4)c3c2)cc1NS(=O)(=O)c1ccc(F)cc1F [Omipalisib] + Nc1ncn([C@H]2C[C@H](O)[C@@H](CO)O2)c(=O)n1 [Decitabine] (partner 2 µM)
How it was run: as §1

Omipalisib + Vorinostat = compound: COc1ncc(-c2ccc3nccc(-c4ccnnc4)c3c2)cc1NS(=O)(=O)c1ccc(F)cc1F [Omipalisib] + O=C(CCCCCCC(=O)Nc1ccccc1)NO [Vorinostat] (partner 1 µM)
How it was run: as §1

| Cell Line | relative viability (Omipalisib + Trametinib; first compound 0.0003 µM) | relative viability (Omipalisib + Trametinib; first compound 0.003 µM) | relative viability (Omipalisib + Trametinib; first compound 0.03 µM) | relative viability (Omipalisib + OSI-027; first compound 0.0003 µM) | relative viability (Omipalisib + OSI-027; first compound 0.003 µM) | relative viability (Omipalisib + OSI-027; first compound 0.03 µM) | relative viability (Omipalisib + Lapatinib; first compound 0.0003 µM) | relative viability (Omipalisib + Lapatinib; first compound 0.003 µM) | relative viability (Omipalisib + Lapatinib; first compound 0.03 µM) | relative viability (Omipalisib + Dasatinib; first compound 0.0003 µM) | relative viability (Omipalisib + Dasatinib; first compound 0.003 µM) | relative viability (Omipalisib + Dasatinib; first compound 0.03 µM) | relative viability (Omipalisib + Decitabine; first compound 0.0003 µM) | relative viability (Omipalisib + Decitabine; first compound 0.003 µM) | relative viability (Omipalisib + Decitabine; first compound 0.03 µM) | relative viability (Omipalisib + Vorinostat; first compound 0.0003 µM) | relative viability (Omipalisib + Vorinostat; first compound 0.003 µM) | relative viability (Omipalisib + Vorinostat; first compound 0.03 µM) |
| --- | --- | --- | --- | --- | --- | --- | --- | --- | --- | --- | --- | --- | --- | --- | --- | --- | --- | --- |
| NCI-H1944 | 0.355 | 0.246 | 0.197 | 0.396 | 0.256 | 0.201 | 0.785 | 0.493 | 0.385 | 0.194 | 0.17 | 0.156 | 0.384 | 0.356 | 0.239 | 0.469 | 0.359 | 0.29 |
| NCI-H1975 | 0.331 | 0.207 | 0.165 | 0.772 | 0.415 | 0.159 | 0.801 | 0.613 | 0.22 | 0.33 | 0.249 | 0.113 | 0.398 | 0.296 | 0.178 | 0.702 | 0.458 | 0.276 |
| NCI-H1993 | 0.423 | 0.584 | 0.509 | 0.48 | 0.597 | 0.621 | 0.812 | 0.809 | 0.588 | 0.498 | 0.545 | 0.486 | 0.6 | 0.483 | 0.447 | 0.788 | 0.162 | 0.378 |
| NCI-H2009 | 0.278 | 0.16 | 0.184 | 0.673 | 0.444 | 0.312 | 0.997 | 0.943 | 0.581 | 0.272 | 0.215 | 0.157 | 0.355 | 0.389 | 0.324 | 0.674 | 0.689 | 0.573 |
| NCI-H2023 | 0.492 | 0.358 | 0.149 | 0.344 | 0.169 | 0.0988 | 0.684 | 0.374 | 0.179 | 0.446 | 0.213 | 0.114 | 0.177 | 0.215 | 0.16 | 0.356 | 0.454 | 0.161 |
| NCI-H2085 | 0.456 | 0.255 | 0.257 | 0.776 | 0.349 | 0.315 | 0.838 | 0.571 | 0.382 | 0.258 | 0.194 | 0.227 | 0.524 | 0.507 | 0.348 | 0.815 | 0.701 | 0.436 |
| NCI-H2087 | 0.18 | 0.163 | 0.142 | 0.532 | 0.309 | 0.251 | 1.34 | 0.955 | 0.747 | 0.8 | 0.566 | 0.614 | 0.327 | 0.192 | 0.125 | 0.683 | 0.549 | 0.29 |
| NCI-H2126 | 0.487 | 0.397 | 0.327 | 0.71 | 0.488 | 0.411 | 0.759 | 0.46 | 0.374 | 0.545 | 0.366 | 0.301 | 0.548 | 0.414 | 0.304 | 0.718 | 0.442 | 0.348 |
| NCI-H2170 | 0.801 | 0.545 | 0.303 | 0.656 | 0.475 | 0.485 | 0.221 | 0.257 | 0.257 | 0.517 | 0.426 | 0.453 | 0.446 | 0.339 | 0.29 | 0.716 | 0.51 | 0.418 |
| NCI-H2347 | 0.245 | 0.252 | 0.215 | 0.345 | 0.262 | 0.959 | 0.855 | 0.902 | 0.81 | 0.286 | 0.253 | 0.26 | 0.538 | 0.523 | 0.464 | 0.638 | 0.475 | 0.368 |
| NCI-H2405 | 0.486 | 0.37 | 0.271 | 0.661 | 0.359 | 0.296 | 0.949 | 0.6 | 0.303 | 0.213 | 0.204 | 0.166 | 0.701 | 0.482 | 0.308 | 1 | 0.667 | 0.418 |
| NCI-H3122 | 0.185 | 0.137 | 0.119 | 0.863 | 0.376 | 0.216 | 1.03 | 1.05 | 0.786 | 0.641 | 0.0596 | 0.315 | 0.319 | 0.258 | 0.139 | 0.752 | 0.713 | 0.399 |
| PC-3 [JPC-3] | 0.738 | 0.664 | 0.439 | 0.735 | 0.569 | 0.551 | 0.457 | 0.367 | 0.318 | 0.942 | 0.917 | 0.726 | 0.776 | 0.816 | 0.627 | 0.889 | 0.821 | 0.613 |
| PC-14 | 0.807 | 0.682 | 0.243 | 0.761 | 0.529 | 0.435 | 0.308 | 0.228 | 0.162 | 0.31 | 0.237 | 0.079 | 0.19 | 0.248 | 0.222 | 0.683 | 0.527 | 0.373 |
| RERF-LC-KJ | 0.769 | 0.635 | 0.413 | 0.524 | 0.423 | 0.367 | 0.773 | 0.572 | 0.632 | 0.757 | 0.509 | 0.407 | 0.637 | 0.502 | 0.434 | 0.627 | 0.52 | 0.424 |
| SK-LU-1 | 0.411 | 0.36 | 0.253 | 0.373 | 0.207 | 0.183 | 0.89 | 0.724 | 0.493 | 0.175 | 0.121 | 0.109 | 0.633 | 0.548 | 0.494 | 0.758 | 0.561 | 0.535 |
| SK-MES-1 | 0.512 | 0.419 | 0.285 | 0.508 | 0.252 | 0.29 | 0.447 | 0.308 | 0.364 | 0.316 | 0.174 | 0.136 | 0.363 | 0.262 | 0.241 | 1.02 | 0.739 | 0.526 |
| SW 1573 | 0.441 | 0.373 | 0.226 | 0.397 | 0.371 | 0.225 | 0.905 | 0.786 | 0.638 | 0.165 | 0.331 | 0.101 | 0.306 | 0.241 | 0.239 | 0.236 | 0.456 | 0.315 |
| UMC-11 | 0.612 | 0.359 | 0.36 | 0.376 | 0.349 | 0.48 | 0.836 | 0.531 | 0.738 | 0.445 | 0.455 | 0.422 | 0.491 | 0.397 | 0.527 | 0.416 | 0.281 | 0.264 |
